Test results taken from article PMC7248381, “Structure and Characterization of a Covalent Inhibitor of Src Kinase” (Frontiers in Molecular Biosciences, 2020).

Experiments:
[1] = biological target: Src kinase (Homo sapiens, UniProt P12931); test: Src enzymatic activity, mobility shift assay (MSA)
Method: Here, we evaluated the relative potency of inhibitors on Src enzymatic activity using a mobility shift assay (MSA), which measures phosphorylation of a peptide substrate of Src. […] The kinase reaction buffer consisted of 100 mM Hepes, pH 7.3, 0.015% Brij-35, 0.004% Tween-20, and 10 mM MgCl2. […] The percent conversion was determined by EZReader 3.0 software and analyzed using GraphPad software version 7 (La Jolla, California, USA) for determination of IC50 values.

[2] = set-up: method as in earlier work; conditions: comparison values, ref Gierse et al., 1999, Papp-Wallace et al., 2014, Schwartz et al.; cited from earlier work

Src kinase, sequence (P12931 254-536): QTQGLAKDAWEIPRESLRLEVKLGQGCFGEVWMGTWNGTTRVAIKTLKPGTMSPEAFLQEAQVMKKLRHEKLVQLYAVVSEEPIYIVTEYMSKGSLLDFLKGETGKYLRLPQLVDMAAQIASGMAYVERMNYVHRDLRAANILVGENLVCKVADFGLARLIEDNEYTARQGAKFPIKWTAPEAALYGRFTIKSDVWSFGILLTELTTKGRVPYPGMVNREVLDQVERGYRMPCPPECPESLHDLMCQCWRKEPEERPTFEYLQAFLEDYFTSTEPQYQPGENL

Row | SMILES | IC50 [1] [nM] | inactivation rate constant (kinact) [2] [s⁻¹]
1 | C=CC(=O)Nc1ccccc1Nc1nc(Nc2ccc(N3CCN(C)CC3)cc2)ncc1Cl [SM1-71] | 26.6 | 
2 | CN(C)C/C=C/C(=O)Nc1cc2c(Nc3ccc(F)c(Cl)c3)ncnc2cc1O[C@H]1CCOC1 [afatinib] |  | 0.001
3 | CCOc1cc2ncc(C#N)c(Nc3ccc(OCc4ccccn4)c(Cl)c3)c2cc1NC(=O)/C=C/CN(C)C [neratinib] |  | 0.002
